From patent US9493487B2, “3-(1H-imidazo[4,5-C]pyridin-2-YL)-1H-pyrazolo[3,4-B]pyridine and therapeutic uses thereof” (Samumed, LLC, priority 2014, dated 2016)

System: Wnt activity (Sp5-Luc reporter, SW480 colon carcinoma cells)
Experiment: Sp5-Luc Wnt reporter gene assay in SW480 colon carcinoma cells
Format: cell-based
Details: Homo sapiens; SW480 cells stably expressing Sp5-Luc reporter; 42 h incubation; BrightGlo luminescence normalized to DMSO
Description: The screening assay for Wnt activity is described as follows. Reporter cell lines can be generated by stably transducing cancer cell lines (e.g., colon cancer) or primary cells (e.g., IEC-6 intestinal cells) with a lentiviral construct that includes a Wnt-responsive promoter driving expression of the firefly luciferase gene.
SW480 colon carcinoma cells were transduced with a lentiviral vector expressing luciferase with a human Sp5 promoter consisting of a sequence of eight TCF/LEF binding sites. SW480 cells stably expressing the Sp5-Luc reporter gene and a hygromycin resistance gene were selected by treatment with 150 μg/ml of hygromycin for 7 days. These stably transduced SW480 cells were expanded in cell culture and used for all further screening activities. For Sp5-Luc reporter gene assays, the cells were plated at 10,000 cells/well in 96-well plates with growth medium containing 10% fetal calf serum and incubated overnight at 37° C. and 5% CO2. Each compound was dissolved in DMSO as a 10 mM stock in standard j-vials and used to prepare compound source plates in dose-response format with 3-fold serial dilutions and a 10 mM top concentration. Compound transfer from serially diluted source plates to assay plates containing the cells was accomplished using a pintool (Multimek 96, Beckman equipped with V&P Scientific FP1S50H pins) based liquid handling protocol. This protocol used a slotted pin to transfer 50 nl of compound from a source plate well to an assay plate well containing 50 μl of cells in growth medium. […] Control wells received 50 nl of DMSO treatment for normalization and calculating IC50 values. The treated cells were incubated at 37° C. and 5% CO2 for an additional forty-two hours. Following incubation, the growth medium was removed and 50 μl of BrightGlo luminescence reagent (Promega) was added to each well of the 96-well assay plates. The plates were placed on an orbital shaker for 5 min and then luminescence was quantified on the Victor3 (Perkin Elmer) plate reader. Readings were normalized to DMSO only treated cells, and normalized activities were utilized for IC50 calculations using the dose-response log (inhibitor) vs. response-variable slope (four parameters) nonlinear regression feature available in GraphPad Prism 5.0 or 6.0.

With `Fc1cccc(-c2nccc3[nH]c(-c4n[nH]c5ncc(-c6ccccn6)cc45)nc23)c1` [Compound 901, 3-(4-(3-Fluorophenyl)-1H-imidazo[4,5-c]pyridin-2-yl)-5-(pyridin-2-yl)-1H-pyrazolo[3,4-b]pyridine] as the compound, how does the IC50 read?
Its IC50 is greater than 10000 nM.

How did the IC50 turn out when `Oc1cncc(-c2cnc3[nH]nc(-c4nc5c(-c6cccc(F)c6)nccc5[nH]4)c3c2)c1` [Compound 897, 5-(3-(4-(3-Fluorophenyl)-1H-imidazo[4,5-c]pyridin-2-yl)-1H-pyrazolo[3,4-b]pyridin-5-yl)pyridin-3-ol] was run?
The IC50 was 23 nM.

`CCCCC(=O)Nc1cncc(-c2cnc3[nH]nc(-c4nc5c(-c6ccoc6)nccc5[nH]4)c3c2)c1` [Compound 278, N-(5-(3-(4-(Furan-3-yl)-1H-imidazo[4,5-c]pyridin-2-yl)-1H-pyrazolo[3,4-b]pyridin-5-yl)pyridin-3-yl)pentanamide] was tested. Which IC50 did it give?
The IC50 was 56 nM.

With `CCNCc1cncc(-c2cnc3[nH]nc(-c4nc5c(-c6ccoc6)nccc5[nH]4)c3c2)c1` [Compound 266, N-((5-(3-(4-(Furan-3-yl)-1H-imidazo[4,5-c]pyridin-2-yl)-1H-pyrazolo[3,4-b]pyridin-5-yl)pyridin-3-yl)methyl)ethanamine] as the compound, how does the IC50 read?
Its IC50 is 339 nM.

For `CN1CCN(c2nccc3[nH]c(-c4n[nH]c5ncc(-c6cncc(NC(=O)C7CCCC7)c6)cc45)nc23)CC1` [Compound 229, N-(5-(3-(4-(4-Methylpiperazin-1-yl)-1H-imidazo[4,5-c]pyridin-2-yl)-1H-pyrazolo[3,4-b]pyridin-5-yl)pyridin-3-yl)cyclopentanecarboxamide], which IC50 is on record?
The IC50 was 1550 nM.

`CS(=O)(=O)NCc1cc(F)cc(-c2nccc3[nH]c(-c4n[nH]c5ncc(-c6cncc(CNCc7ccccc7)c6)cc45)nc23)c1` [Compound 413, N-(3-(2-(5-(5-((Benzylamino)methyl)pyridin-3-yl)-1H-pyrazolo[3,4-b]pyridin-3-yl)-1H-imidazo[4,5-c]pyridin-4-yl)-5-fluorobenzyl)methanesulfonamide] was tested. Which IC50 did it give?
Its IC50 is 143 nM.

How did the IC50 turn out when `CC(C)CC(=O)Nc1cncc(-c2cnc3[nH]nc(-c4nc5c(-c6cc(F)cc(OCCN7CCCC7)c6)nccc5[nH]4)c3c2)c1` [Compound 1236, N-(5-(3-(4-(3-Fluoro-5-(2-(pyrrolidin-1-yl)ethoxy)phenyl)-1H-imidazo[4,5-c]pyridin-2-yl)-1H-pyrazolo[3,4-b]pyridin-5-yl)pyridin-3-yl)-3-methylbutanamide] was run?
The IC50 was 445 nM.

Which IC50 does the source give for `Fc1cccc(-c2nccc3[nH]c(-c4n[nH]c5ncc(-c6cncc(OCc7ccccc7)c6)cc45)nc23)c1` [Compound 898, 5-(5-(Benzyloxy)pyridin-3-yl)-3-(4-(3-fluorophenyl)-1H-imidazo[4,5-c]pyridin-2-yl)-1H-pyrazolo[3,4-b]pyridine] here?
The IC50 was 3260 nM.

How did the IC50 turn out when `Fc1cccc(-c2nccc3[nH]c(-c4n[nH]c5ncc(-c6cncc(OCCN7CCCC7)c6)cc45)nc23)c1` [Compound 894, 3-(4-(3-Fluorophenyl)-1H-imidazo[4,5-c]pyridin-2-yl)-5-(5-(2-(pyrrolidin-1-yl)ethoxy)pyridin-3-yl)-1H-pyrazolo[3,4-b]pyridine] was run?
The IC50 was 1500 nM.

With `O=C(Nc1cncc(-c2cnc3[nH]nc(-c4nc5c(-c6ccncc6)nccc5[nH]4)c3c2)c1)C1CCCCC1` [Compound 126, N-(5-(3-(4-(Pyridin-4-yl)-1H-imidazo[4,5-c]pyridin-2-yl)-1H-pyrazolo[3,4-b]pyridin-5-yl)pyridin-3-yl)cyclohexanecarboxamide] as the compound, how does the IC50 read?
The IC50 was 1120 nM.

`CCCC(=O)Nc1cncc(-c2cnc3[nH]nc(-c4nc5c(-c6cc(F)cc(CNS(C)(=O)=O)c6)nccc5[nH]4)c3c2)c1` [Compound 407, N-(5-(3-(4-(3-Fluoro-5-(methylsulfonamidomethyl)phenyl)-1H-imidazo[4,5-c]pyridin-2-yl)-1H-pyrazolo[3,4-b]pyridin-5-yl)pyridin-3-yl)butyramide] was tested. Which IC50 did it give?
The IC50 was 74.1 nM.

How did the IC50 turn out when `COc1cc(F)cc(-c2nccc3[nH]c(-c4n[nH]c5ncc(-c6cncc(NC(=O)CC(C)C)c6)cc45)nc23)c1` [Compound 1324, N-(5-(3-(4-(3-Fluoro-5-methoxyphenyl)-1H-imidazo[4,5-c]pyridin-2-yl)-1H-pyrazolo[3,4-b]pyridin-5-yl)pyridin-3-yl)-3-methylbutanamide] was run?
Its IC50 is 85 nM.

`Cc1cn(-c2nccc3[nH]c(-c4n[nH]c5ncc(-c6cncc(NC(=O)C(C)(C)C)c6)cc45)nc23)cn1` [Compound 190, N-(5-(3-(4-(4-Methyl-1H-imidazol-1-yl)-1H-imidazo[4,5-c]pyridin-2-yl)-1H-pyrazolo[3,4-b]pyridin-5-yl)pyridin-3-yl)pivalamide] was tested. Which IC50 did it give?
The IC50 was 1580 nM.

Which IC50 does the source give for `c1cncc(-c2cnc3[nH]nc(-c4nc5c(-c6cccnc6)nccc5[nH]4)c3c2)c1` [Compound 82, 5-(Pyridin-3-yl)-3-(4-(pyridin-3-yl)-1H-imidazo[4,5-c]pyridin-2-yl)-1H-pyrazolo[3,4-b]pyridine] here?
The IC50 was 41.9 nM.

Which IC50 does the source give for `Fc1cccc(-c2nccc3[nH]c(-c4n[nH]c5ncc(C6=CCNCC6)cc45)nc23)c1` [Compound 886, 3-(4-(3-Fluorophenyl)-1H-imidazo[4,5-c]pyridin-2-yl)-5-(1,2,3,6-tetrahydropyridin-4-yl)-1H-pyrazolo[3,4-b]pyridine] here?
The IC50 was 3700 nM.

`Fc1ccc(-c2nccc3[nH]c(-c4n[nH]c5ncc(-c6cncnc6)cc45)nc23)cc1` [Compound 52, 3-(4-(4-Fluorophenyl)-1H-imidazo[4,5-c]pyridin-2-yl)-5-(pyrimidin-5-yl)-1H-pyrazolo[3,4-b]pyridine] was tested. Which IC50 did it give?
The IC50 was 155 nM.

`CN1CCN(c2nccc3[nH]c(-c4n[nH]c5ncc(-c6cncnc6)cc45)nc23)CC1` [Compound 234, 3-(4-(4-Methylpiperazin-1-yl)-1H-imidazo[4,5-c]pyridin-2-yl)-5-(pyrimidin-5-yl)-1H-pyrazolo[3,4-b]pyridine] was tested. Which IC50 did it give?
The IC50 was 179 nM.

Which IC50 does the source give for `c1cncc(-c2nccc3[nH]c(-c4n[nH]c5ncc(-c6cncc(CN7CCCCC7)c6)cc45)nc23)c1` [Compound 93, 5-(5-(Piperidin-1-ylmethyl)pyridin-3-yl)-3-(4-(pyridin-3-yl)-1H-imidazo[4,5-c]pyridin-2-yl)-1H-pyrazolo[3,4-b]pyridine] here?
Its IC50 is 3880 nM.

For `CC(C)CC(=O)Nc1cncc(-c2cnc3[nH]nc(-c4nc5c(-c6cc(F)cc(OCCN(C)C)c6)nccc5[nH]4)c3c2)c1` [Compound 1192, N-(5-(3-(4-(3-(2-(Dimethylamino)ethoxy)-5-fluorophenyl)-1H-imidazo[4,5-c]pyridin-2-yl)-1H-pyrazolo[3,4-b]pyridin-5-yl)pyridin-3-yl)-3-methylbutanamide], which IC50 is on record?
Its IC50 is 400 nM.

`Fc1cccc(-c2nccc3[nH]c(-c4n[nH]c5ncc(-c6cncc(CN7CCC(F)(F)C7)c6)cc45)nc23)c1` [Compound 25, 5-(5-((3,3-Difluoropyrrolidin-1-yl)methyl)pyridin-3-yl)-3-(4-(3-fluorophenyl)-1H-imidazo[4,5-c]pyridin-2-yl)-1H-pyrazolo[3,4-b]pyridine] was tested. Which IC50 did it give?
The IC50 was 33.9 nM.

How did the IC50 turn out when `CC(C)C(=O)Nc1cncc(-c2cnc3[nH]nc(-c4nc5c(N6CCN(C)CC6)nccc5[nH]4)c3c2)c1` [Compound 217, N-(5-(3-(4-(4-Methylpiperazin-1-yl)-1H-imidazo[4,5-c]pyridin-2-yl)-1H-pyrazolo[3,4-b]pyridin-5-yl)pyridin-3-yl)isobutyramide] was run?
The IC50 was 673 nM.

For `Fc1cccc(-c2nccc3[nH]c(-c4n[nH]c5ncc(-c6cncc(OC7CCCCC7)c6)cc45)nc23)c1` [Compound 891, 5-(5-(Cyclohexyloxy)pyridin-3-yl)-3-(4-(3-fluorophenyl)-1H-imidazo[4,5-c]pyridin-2-yl)-1H-pyrazolo[3,4-b]pyridine], which IC50 is on record?
The IC50 was 935 nM.

`CC(C)CC(=O)Nc1cncc(-c2cnc3[nH]nc(-c4nc5c(-c6cc(O)cc(F)c6)nccc5[nH]4)c3c2)c1` [Compound 1280, N-(5-(3-(4-(3-Fluoro-5-hydroxyphenyl)-1H-imidazo[4,5-c]pyridin-2-yl)-1H-pyrazolo[3,4-b]pyridin-5-yl)pyridin-3-yl)-3-methylbutanamide] was tested. Which IC50 did it give?
The IC50 was 90 nM.

With `O=C(CC1CCCCC1)Nc1cncc(-c2cnc3[nH]nc(-c4nc5c(-c6cccc(F)c6)nccc5[nH]4)c3c2)c1` [Compound 899, 2-Cyclohexyl-N-(5-(3-(4-(3-fluorophenyl)-1H-imidazo[4,5-c]pyridin-2-yl)-1H-pyrazolo[3,4-b]pyridin-5-yl)pyridin-3-yl)acetamide] as the compound, how does the IC50 read?
The IC50 was 1970 nM.
